These results are taken from US10770699B2, “Stable bromine charge storage in porous carbon electrodes using tetraalkylammonium bromides for reversible solid complexation” (The Regents of the University of California, priority 2014, dated 2020).

The nature of this data set: Solubility of redox-active electrolyte species in aqueous electrolyte.

With `CCCCCC[n+]1ccc(-c2cc[n+](CCCCCC)cc2)cc1` [Hexyl viologen], the “solubility in the presence of NaBr” value (aqueous, in the presence of NaBr) was less than 500 mM. Take `CCCCCCC[n+]1ccc(-c2cc[n+](CCCCCCC)cc2)cc1.[Br-].[Br-]` [HV]: under “aqueous electrolyte”, the solubility (in general, the dissolved amount per volume that the medium holds) was less than 200 mM.
